Legend:
patients with COPD [1] = assay: Phase II clinical study, repeat dose crossover part (FEV1); type: in vivo, human; conditions: for Improvement from baseline in peak FEV1 (over 4 hours) on Day 7 compared with placebo: DPI; for Improvement in morning trough FEV1 on Day 7 compared with placebo: twice daily over 7 days, dose not identified
Method: (§1) A 2-part, 37 patient, Phase II single and repeat dose clinical study with ensifentrine in patients with COPD was completed using DPI formulations 12, 13 and 14 (Table 6).
The second part of the study was a complete block crossover study using the same patients that were dosed in the first part of the study. Ensifentrine doses of 0.15 mg to 3 mg dosed twice daily over 7 days also provided dose-dependent, highly statistically significant and clinically meaningful improvements from baseline in peak FEV1 (over 4 hours) on Day 7 of 102, 175, 180, and 260 mL, respectively, compared with placebo (p≤0.0001 for all dose groups). The improvement in FEV1 was sustained over the 12 hour dosing interval as shown by clinically meaningful and statistically significant improvements in average FEV1 over 12 hours of up to 147 mL (p<0.05 for all dose groups) and in morning trough FEV1 on Day 7 of 98, 87, and 97 mL, respectively, compared with placebo (p≤0.001 for each dose).

[2] = Particle size distribution of materials (laser diffraction); type: physicochemical; conditions: volume particle size distribution
Source text: Particle sizes are described herein by reference to the Dv50 value, which is the median particle size for a volume distribution. Thus, half the volume of the particles have diameters of less than the Dv50 value and half the volume of the particles have diameters of greater than the Dv50 value. This is a well-known manner in which to describe particle size distributions. The parameters of Dv10 and Dv90 may also be used to characterise a particle size distribution of a sample. 10% of the volume of particles have a diameter of less than the Dv10 value. 90% of the volume of the particles have a diameter of less than the Dv90 value.
The technique used to measure the Dv50 (and Dv10 and Dv90) values as stated herein is typically laser diffraction. For instance, the coarse lactose particles typically have a particle size distribution with a Dv50 value of from 40 μm to 80 μm as measured by laser diffraction and the fine lactose particles have a particle size distribution with a Dv50 value of from 5 μm to 10 μm as measured by laser diffraction.
The particle size distribution of low aqueous solubility materials, for instance the ensifentrine particles, may be as measured by laser diffraction using a wet powder dispersion system. For instance, the particle size distribution can be measured by laser diffraction using a Malvern Spraytec in conjunction with a wet dispersion cell. Typically, the instrument parameters for the Malvern Spraytec are as follows: • particle—standard opaque particle; • refractive index Particle—1.50; • refractive index (imaginary)—0.50; • density of particle—1.00; • refractive index of dispersant—1.33; • controller unit—1000 RPM; • measurement type—timed; • initial sampling time—30 s; • obscuration—20%-30%; • dispersant—1% Polysorbate 20 in deionised water.
The particle size distribution of materials soluble in water, for instance lactose particles, may be as measured by laser diffraction using a dry powder dispersion system. For instance, the particle size distribution can be measured by laser diffraction using a Malvern or Sympatec dry dispersion cell. […]

patients with COPD [3] = assay: Phase II clinical study, single dose part (FEV1); type: in vivo, human
Method: as §1
Ensifentrine doses of 0.15, 0.5, 1.5, and 3 mg provided dose-dependent improvements from baseline in peak Forced Expiratory Volume in one second (FEV1) (over 4 hours) of up to 333 mL compared with placebo (p<0.01 for 1.5 mg and 3 mg doses).

COc1cc2c(cc1OC)-c1c/c(=N\c3c(C)cc(C)cc3C)n(CCNC(N)=O)c(=O)n1CC2 [Ensifentrine, 9,10-dimethoxy-2-(2,4,6-trimethylphenylimino)-3-(N-carbamoyl-2-aminoethyl)-3,4,6,7-tetrahydro-2H-pyrimido[6,1-a]isoquinolin-4-one]
Improvement in average FEV1 over 12 hours (patients with COPD [1]; 0.15 mg to 3 mg twice daily over 7 days, maximum across doses): up to 147 mL
Improvement from baseline in peak FEV1 (over 4 hours) on Day 7 compared with placebo (patients with COPD [1]; 0.15 mg twice daily over 7 days): 102 mL
Improvement from baseline in peak FEV1 (over 4 hours) on Day 7 compared with placebo (patients with COPD [1]; 0.5 mg twice daily over 7 days): 175 mL
Improvement from baseline in peak FEV1 (over 4 hours) on Day 7 compared with placebo (patients with COPD [1]; 1.5 mg twice daily over 7 days): 180 mL
Improvement from baseline in peak FEV1 (over 4 hours) on Day 7 compared with placebo (patients with COPD [1]; 3 mg twice daily over 7 days): 260 mL
Improvement in morning trough FEV1 on Day 7 compared with placebo (patients with COPD [1]; first of three listed values): 98 mL
Improvement in morning trough FEV1 on Day 7 compared with placebo (patients with COPD [1]; second of three listed values): 87 mL
Improvement in morning trough FEV1 on Day 7 compared with placebo (patients with COPD [1]; third of three listed values): 97 mL
Dv10 (μm) [2]: 0.5 μm
Dv50 (μm) [2]: 1.3 μm
Dv90 (μm) [2]: 3.6 μm
Improvement from baseline in peak FEV1 (over 4 hours) compared with placebo (patients with COPD [3]; single doses of 0.15, 0.5, 1.5 and 3 mg by DPI, maximum across doses): up to 333 mL
Bronchodilatory effect (patients with COPD [3]; single doses up to 3 mg by DPI, over 12 hours, COPD patients): rapid, dose-dependent, and statistically significant bronchodilatory effect
